Among the data in patent publication US20080039442A1, “Compounds With Kv4 Ion Channel Activity” (Devgen NV, priority 2004, published 2008) are remaining activity, IC50 and melting point values, retold here.

The target of the first data set is T1, human Kv4.3/KChIP2.2 potassium channel (Homo sapiens, UniProt Q9UK17).
T1 construct: expressed in transfected cells
T1 sequence (Q9UK17 1-655): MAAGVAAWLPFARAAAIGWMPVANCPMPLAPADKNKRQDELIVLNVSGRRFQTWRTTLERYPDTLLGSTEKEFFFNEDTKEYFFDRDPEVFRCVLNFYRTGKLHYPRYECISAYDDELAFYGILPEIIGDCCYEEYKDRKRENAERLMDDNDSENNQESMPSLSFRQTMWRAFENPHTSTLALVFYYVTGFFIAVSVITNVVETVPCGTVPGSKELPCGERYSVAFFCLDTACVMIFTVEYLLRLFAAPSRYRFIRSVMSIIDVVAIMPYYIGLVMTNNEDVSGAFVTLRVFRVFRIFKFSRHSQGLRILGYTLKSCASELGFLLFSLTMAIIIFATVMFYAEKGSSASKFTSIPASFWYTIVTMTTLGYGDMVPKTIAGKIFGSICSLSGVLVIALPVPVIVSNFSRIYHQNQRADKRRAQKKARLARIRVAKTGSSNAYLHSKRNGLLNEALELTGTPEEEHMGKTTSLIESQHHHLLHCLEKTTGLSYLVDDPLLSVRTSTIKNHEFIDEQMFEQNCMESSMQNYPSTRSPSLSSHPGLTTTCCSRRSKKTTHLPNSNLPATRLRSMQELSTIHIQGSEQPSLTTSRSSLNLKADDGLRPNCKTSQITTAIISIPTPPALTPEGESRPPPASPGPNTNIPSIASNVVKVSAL
T1 sequence (Q9NS61 1-270 partner): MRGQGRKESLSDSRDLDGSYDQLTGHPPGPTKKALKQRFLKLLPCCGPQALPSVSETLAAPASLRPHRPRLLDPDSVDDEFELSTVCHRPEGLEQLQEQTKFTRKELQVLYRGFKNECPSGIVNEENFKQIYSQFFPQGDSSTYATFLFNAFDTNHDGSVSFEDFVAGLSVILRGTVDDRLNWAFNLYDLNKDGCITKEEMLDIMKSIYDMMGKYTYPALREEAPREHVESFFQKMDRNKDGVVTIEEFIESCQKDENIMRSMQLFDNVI
Description: Whole cell patch clamp, CHO-K1 cells stably expressing Kv4.3/KChIP2.2. Conditions: CHO-K1; 1 μM; read-out: Kv4.3 charge in %: remaining current measured after application of the compound and relative to the blank. Type of data set: cell-based. As to the method:
For this experiment, a recombinant CHO-K1 cell line stably expressing the human Kv4.3/KChIP2.2 potassium channel was used.
Protocol B: The cells were cultured in 94 mm culture dishes under the culturing conditions of 5% CO2 and 37° C. Subculturing was performed every 3-4 days, by removing the media and then rising the dish with 8 ml PBS (phosphate buffered saline). The PBS was removed and 1 ml Trypsin/EDTA was added to the cells. The cells were incubated about 2 min at 37° C. or 5 min at room temperature and then the dish was rapped to detach and singularize the cells. To inactivate the enzyme 9 ml of media was added and the solution was pipetted up and down to break up clumps of cells. Part of the suspension was then transferred to a new 94 mm dish and media was added to a final volume of 8 ml. If necessary the cells could be seeded onto 35 mm or 94 mm dishes (2 ml media per 35 mm dish and 8 ml media per 94 mm dish). The media was changed every 2-3 days. The media used was the solution for culturing the cells described above. For stable cells antibiotic G418, Hygromycin, Blasticidin, or Zeocin were not added.
The preparation of cells for electrophysiological experiments was performed as described in protocol C hereunder.
Protocol C: The transfected cells and stable cells were transferred from 35 mm cell culture dishes onto coverslips using cold PBS: The media was removed and 0.3 ml of PBS (4-10° C.) was added. The cells were incubated 5 min at room temperature. The dish was rapped to detach and singularize the cells and 1.7 ml media was added and the solution pipetted up and down to break up clumps of cells. Part of the cell suspension was then transferred to a 35 mm dish with coverslips and media. The transfected cells and stable cells could also be transferred from 35 mm cell culture dishes onto coverslips using trypsin: The media was removed and the dish rinsed with 3 ml PBS. The PBS was removed and 0.3 ml 1× Trypsin/EDTA was added and the cells incubated 5 min at room temperature. The dish was rapped to detach and singularize the cells and 1.7 ml media was added and the solution pipetted up and down to break up clumps of cells. Part of the cell suspension was then transferred to a 35 mm dish with coverslips and media.
10 mM stock solutions of the compounds were prepared in DMSO. Solutions of the compounds were prepared by dilution of stock solution in bath solution. If the required stock solution volume was theoretically below 1 μl, bath solutions with higher compound concentration were used for dilution. The maximal DMSO concentration during experiments was 0.1% (v/v).
For patch clamp experiments, the following solutions in demineralized water as vehicle were used (concentration in mM).
Bath (external) solution: 4 KCl, 135 NaCl, 2 CaCl2, 1 MgCl2, 10 D(+)-Glucose, 5 HEPES, pH 7.4 (NaOH).
Pipette (internal) solution: 130 KCl, 1 MgCl2, 10 EGTA, 5 Na2ATP, 5 HEPES, pH 7.4 (KOH).
Experiments were performed using a patch clamp set-up.
Measurements were performed at room temperature (20-25° C.). […] Each cell acted as its own control. The effect of compounds on Kv4.3/KChIP2.2 mediated currents was investigated at one concentration ([…]) with two replicates each (c=1, n=2).
The test protocols are illustrated in FIG. 1 and Table 4. […] Each test protocol consisted of 4 segments.
Subsequently, 14 test pulses (series 1; FIG. 1b and Table 4b) were applied at 0.1 Hz under constant superfusion with bath solution. The protocol was initiated by a voltage jump to −100 mV (400 ms) to achieve full inactivation. Then the Kv4.3/KChIP2.2 channels were transferred to the open state by depolarization to +40 mV for 300 milliseconds (activation). Only cells generating current amplitudes between 1 nA and 50 nA were used for the experimental procedure. No or negligible rundown was observed.
Then, 36 test pulses (series 2) were applied at 0.1 Hz under constant superfusion with the compound dissolved in bath solution. […]
A general note: Patch clamp records ionic current or voltage across a cell membrane.
`O=C(NCc1ccccc1)c1cc2cc(Cl)ccc2o1` [Compound 47, 5-chloro-benzofuran-2-carboxylic benzylamide]: the remaining activity at 1 µM amounted to 87%.
The same measure, in the same setting: to `Cc1c(C(=O)N2CCCCC2Cc2ccccc2)oc2ccc(Cl)cc12` (stereo not drawn) [Compound 106, (2-benzyl-piperidin-1-yl)-(5-chloro-3-methyl-benzofuran-2-yl)-methanone] belongs 59%; to `Cc1ccc(C2CCN(C(=O)c3cc4cc(Cl)ccc4o3)CC2)cc1` [Compound 98, (5-chloro-benzofuran-2-yl)-(4-p-tolyl-piperidin-1-yl)-methanone], 80%; to `COc1ccc(CC(=O)c2cc3ccccc3o2)c(OC)c1` [Compound 23, 1-benzofuran-2-yl-2-(2,4-dimethoxy-phenyl)-ethanone], 83%.
The same measure, in the same setting: to `COc1ccc(CNC(=O)c2cc3ccccc3o2)c(OC)c1` [Compound 12, benzofuran-2-carboxylic acid 2,4-dimethoxy-benzylamide] belongs 89%.

The data set is the same for the next values; noted with them: CHO-K1; 1 μM; read-out: Kv4.3 peak in %: remaining peak height measured after application of the compound and relative to the blank.
As for `O=C(NCc1ccccc1)c1cc2cc(Cl)ccc2o1` [Compound 47, 5-chloro-benzofuran-2-carboxylic benzylamide], the remaining activity at 1 µM worked out at 95%.
Same read-out and setting: to `Cc1c(C(=O)N2CCCCC2Cc2ccccc2)oc2ccc(Cl)cc12` (stereo not drawn) [Compound 106, (2-benzyl-piperidin-1-yl)-(5-chloro-3-methyl-benzofuran-2-yl)-methanone] belongs 87%; to `Cc1ccc(C2CCN(C(=O)c3cc4cc(Cl)ccc4o3)CC2)cc1` [Compound 98, (5-chloro-benzofuran-2-yl)-(4-p-tolyl-piperidin-1-yl)-methanone], 97%; to `COc1ccc(CC(=O)c2cc3ccccc3o2)c(OC)c1` [Compound 23, 1-benzofuran-2-yl-2-(2,4-dimethoxy-phenyl)-ethanone], 99%.
Same read-out and setting: with `COc1ccc(CNC(=O)c2cc3ccccc3o2)c(OC)c1` [Compound 12, benzofuran-2-carboxylic acid 2,4-dimethoxy-benzylamide] the figure was 97%.

The same data set, now with this note: Table 12; read-out: Kv4.3 charge IC50.
A word on the IC50: it is the concentration needed to halve the response being measured. As to `O=C(c1ccc(Cl)cc1)C1CCN(C(=O)c2cc3cc(Cl)ccc3o2)CC1` [Compound 7, (5-chloro-benzofuran-2-yl)-[4-(4-chloro-benzoyl)-piperidin-1-yl]-methanone], the half-maximal inhibitory concentration (IC50) was found to be 0.89 µM.
On the same count and under the same terms, with `Cc1ccc2[nH]cc(CCNC(=O)c3cc4cc(Cl)ccc4o3)c2c1` [Compound 3, 5-chloro-benzofuran-2-carboxylic acid [2-(5-methyl-1H-indole-3-yl)-ethyl]-amide] the figure was 1.33 µM.

Tested on in another data set: not given
Test: not given
Details: not given
One may read the melting point as the temperature, or range, at which the solid turns liquid. On to `COC(=O)[C@@H](NC(=O)c1cc2cc(Cl)ccc2o1)c1ccccc1` [Compound 85, (S)[(5-chloro-benzofuran-2-carbonyl)-amino]-phenyl-acetic acid methyl ester], for which the melting point lay in the range of 76.5 to 79.1 °C.
Still for that read-out and setting: to `COc1ccccc1C1CCN(C(=O)c2cc3cc(Cl)ccc3o2)CC1` [Compound 95, (5-chloro-benzofuran-2-yl)-[4-(2-methoxy-phenyl)-piperidin-1-yl]-methanone] belongs 146.1 to 147.4 °C; to `O=C(NCc1ccc(F)c(C(F)(F)F)c1)c1cc2ccccc2o1` [Compound 50, benzofuran-2-carboxylic acid 4-fluoro-3-trifluoromethyl-benzylamide], 89.5 to 91.6 °C; to `O=C(N[C@H](C(=O)O)c1ccccc1)c1cc2cc(Cl)ccc2o1` [Compound 41, (S)-[(5-chloro-benzofuran-2-carbonyl)-amino]-phenyl-acetic acid], 211.2 to 215.6 °C.
On the same count and under the same terms, with `O=C(c1cc2cc(Cl)ccc2o1)N1CCCC1c1ccccc1` (stereo not drawn) [Compound 103, (5-chloro-benzofuran-2-yl)-(2-phenyl-pyrrolidin-1-yl)-methanone] the figure was 123.3 to 125.4 °C; with `O=C(NCc1ccncc1)c1cc2cc(Cl)ccc2o1` [Compound 81, 5-chloro-benzofuran-2-carboxylic acid (pyridin-4-ylmethyl)-amide], 163.1 to 166.2 °C; with `O=C(NC1CCc2ccccc21)c1cc2cc(Cl)ccc2o1` (stereo not drawn) [Compound 94, 5-chloro-benzofuran-2-carboxylic acid indan-1-ylamide], 161.4 to 164.1 °C.
On to `CSc1ccccc1CNC(=O)c1cc2cc(Cl)ccc2o1` [Compound 60, 5-chloro-benzofuran-2-carboxylic acid 2-methylsulfanyl-benzylamide], for which the melting point lay in the range of 174.7 to 177.2 °C.
Same read-out and setting: to `CC[C@H](NC(=O)c1cc2cc(Cl)ccc2o1)c1ccccc1` [Compound 59, 5-chloro-benzofuran-2-carboxylic acid ((S)-1-phenyl-propyl)-amide] belongs 110.1 to 111.3 °C; to `O=C(c1cc2cc(Cl)ccc2o1)N1CCC(Cc2ccccc2)CC1` [Compound 101, (4-benzyl-piperidin-1-yl)-(5-chloro-benzofuran-2-yl)-methanone], 114.6 to 116.2 °C; to `CC(NC(=O)c1cc2cc(Cl)ccc2o1)c1ccccc1` (stereo not drawn) [Compound 57, 5-chloro-benzofuran-2-carboxylic acid (1-phenyl-ethyl)-amide], 136.3 to 138.2 °C.
On the same count and under the same terms, to `COC(=O)[C@H](NC(=O)c1cc2cc(Cl)ccc2o1)c1ccccc1` [Compound 84, (R)-[(5-chloro-benzofuran-2-carbonyl)-amino]-phenyl-acetic acid methyl ester] belongs 147.9 °C; to `CN(C)S(=O)(=O)c1ccc(CNC(=O)c2cc3cc(Cl)ccc3o2)cc1` [Compound 67, 5-chloro-benzofuran-2-carboxylic acid 4-dimethylsulfamoyl-benzylamide], 163.9 to 166.6 °C; to `COc1ccc(CNC(=O)c2cc3cc(Cl)ccc3[nH]2)c(OC)c1` [Compound 111, 5-chloro-1H-indole-2-carboxylic acid 2,4-dimethoxy-benzylamide], 205.7 to 209.3 °C.
On the same count and under the same terms, with `CS(=O)(=O)c1ccc(CNC(=O)c2cc3cc(Cl)ccc3o2)cc1` [Compound 79, 5-chloro-benzofuran-2-carboxylic acid 4-methanesulfonyl-benzylamide] the figure was 187.6 to 189.1 °C; with `O=C(NCc1ccccc1-c1ccccc1)c1cc2cc(Cl)ccc2o1` [Compound 72, 5-chloro-benzofuran-2-carboxylic acid (biphenyl-2-ylmethyl)-amide], 129.8 to 132.8 °C; with `O=C(Nc1ccc(N2CCOCC2)cc1)c1cc2cc(Cl)ccc2o1` [Compound 99], 223.8 to 225.6 °C.
Regarding `O=C(NCc1ccc(Br)cc1)c1cc2cc(Cl)ccc2o1` [Compound 77, 5-chloro-benzofuran-2-carboxylic acid 4-bromo-benzylamide], the melting point was in the range of 192.3 to 193.8 °C.
